Values quoted from earlier work, collected in patent US20070197640A1, “Certain chemical entities, compositions, and methods” (Cytokinetics, Inc., priority 2005, published 2007).

Tested on: A549 cells
Details: data provided by National Cancer Institute, Developmental Therapeutic Program
In the case of `O=c1[nH]cc(F)c(=O)[nH]1` [5-fluorouracil], the GI50 is given as 1000 nM.
In the case of `COc1cccc2c1C(=O)c1c(O)c3c(c(O)c1C2=O)C[C@@](O)(C(=O)CO)C[C@@H]3O[C@H]1C[C@H](N)[C@H](O)[C@H](C)O1` [doxorubicin], the GI50 is given as 63 nM.
In the case of `NC(=O)NO` [hydroxyurea], the GI50 is given as 500000 nM.
For `CC(=O)O[C@H]1C(=O)[C@@]2(C)[C@H]([C@H](OC(=O)c3ccccc3)[C@]3(O)C[C@H](OC(=O)[C@H](O)[C@@H](NC(=O)c4ccccc4)c4ccccc4)C(C)=C1C3(C)C)[C@]1(OC(C)=O)CO[C@@H]1C[C@@H]2O` [paclitaxel], the GI50 is given as 4 nM.
